Drawing on PubChem BioAssay (NCI), this text covers TGI and GI50 for 17 molecules.

Among the test systems are DLD-1 colon; DMS 114 small cell lung; HOP-18 NSCLC; KM20L2 colon; M19-MEL melanoma; SNB-78 CNS; RXF-631 renal; XF 498 CNS; MDA-N.
What all share (assay): NCI tumour cell line growth inhibition, 48 h

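1) Cells in 96-well plates. 2) Compound, 48 h, 5 concentrations. 3) Linear interpolation between surrounding doses. 4) Unreached endpoint = highest concentration. Abbreviation: GI50, concentration required for 50% inhibition of growth. TGI: total growth inhibition.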

As for `O=C(/C=C/c1cc(Cl)cc(Cl)c1O)c1cccc(O)c1`, the TGI is > 100 µM in the experiment with DLD-1 colon; > 100 µM in the experiment on DMS 114 small cell lung; > 100 µM with HOP-18 NSCLC; > 100 µM in the experiment on KM20L2 colon; 68.7 µM with M19-MEL melanoma; > 100 µM in the experiment with SNB-78 CNS.
In the case of `COC(=O)C(C(=O)C(=O)Nc1c(C)cccc1C)c1cnc2ccccc2n1` (centres undefined), the TGI in the experiment on DMS 114 small cell lung, in the experiment on HOP-18 NSCLC, in the experiment on KM20L2 colon, in the experiment on RXF-631 renal, in the experiment on SNB-78 CNS and with XF 498 CNS was > 100 µM throughout.
Turning to `CN(C)C=Nc1ccn(CCO)c(=O)n1`, the TGI in the experiment on DLD-1 colon, with DMS 114 small cell lung, in the experiment with HOP-18 NSCLC, with KM20L2 colon, with M19-MEL melanoma and in the experiment on RXF-631 renal was > 100 µM throughout. Moreover, the TGI in the experiment on SNB-78 CNS is > 100 µM.
As to `Cc1cn(C2CC(O)C(COC(=O)c3ccccc3)O2)c(=O)[nH]c1=O` (centres undefined), the TGI in the experiment with DLD-1 colon, with HOP-18 NSCLC, in the experiment on KM20L2 colon, in the experiment with M19-MEL melanoma, in the experiment with RXF-631 renal and in the experiment on SNB-78 CNS was > 100 µM throughout. Further, in the experiment on XF 498 CNS, the TGI is > 100 µM.
As for `COc1ccc(NC(=O)C(=O)c2c(O)c3ccc(O)cc3oc2=O)c([N+](=O)[O-])c1`, the TGI with DLD-1 colon, in the experiment on DMS 114 small cell lung, with KM20L2 colon, in the experiment with M19-MEL melanoma and in the experiment with RXF-631 renal was > 100 µM in each case.
In the case of `CCCCCN(CCCCC)C(=O)[C@@H](CCC(=O)O)NC(=O)c1cc2ccccc2[nH]1`, the TGI with DLD-1 colon is > 100 µM; in the experiment with DMS 114 small cell lung, > 100 µM; in the experiment with KM20L2 colon, > 100 µM; with M19-MEL melanoma, 40.9 µM; in the experiment with SNB-78 CNS, > 100 µM; with XF 498 CNS, 71.3 µM.
Turning to `CC(C)(O)[C@@H]1CC[C@@]2(C)CCCC(O)C2(O)C1` (some centres undefined), the TGI in the experiment on DLD-1 colon, with DMS 114 small cell lung, in the experiment with HOP-18 NSCLC, with KM20L2 colon, in the experiment with M19-MEL melanoma and in the experiment with RXF-631 renal was > 100 µM throughout. The TGI with XF 498 CNS is > 100 µM.
For `Cc1c(Cl)cccc1NC(=O)C(=O)C(C(=O)c1ccccc1-c1ccccc1)C1OC(=O)c2ccccc21` (centres undefined), the TGI in the experiment on DLD-1 colon was 49.1 µM; in the experiment with DMS 114 small cell lung it was 43.5 µM; with KM20L2 colon, 51.4 µM; in the experiment with M19-MEL melanoma it was 34.8 µM; with RXF-631 renal, 71.6 µM; with SNB-78 CNS, > 100 µM. The TGI in the experiment with XF 498 CNS is 29.3 µM.
Take `N.N.N.N.N.[Co+3].[I-].[N-]=[N+]=[N-]`: the GI50 in the experiment on DLD-1 colon, in the experiment with KM20L2 colon and in the experiment on SNB-78 CNS was > 100 µM in each case. The TGI with DLD-1 colon, in the experiment with KM20L2 colon and in the experiment with SNB-78 CNS was > 100 µM each time.
Consider `C/C(=C1/N=C(c2cc([N+](=O)[O-])ccc2Cl)N(c2cccc(C)c2)C1=O)c1cc2ccccc2oc1=O`, for which the TGI in the experiment with DLD-1 colon, in the experiment on DMS 114 small cell lung, with HOP-18 NSCLC, with KM20L2 colon, in the experiment on M19-MEL melanoma and in the experiment on RXF-631 renal was > 100 µM throughout. Moreover, the TGI was > 100 µM in the experiment on SNB-78 CNS and 81.2 µM in the experiment on XF 498 CNS.
In the case of `COC(=O)C(Cc1cc(OC)c(OC)c(OC)c1)C(=O)OC`, the TGI in the experiment with DLD-1 colon, in the experiment with DMS 114 small cell lung, in the experiment on KM20L2 colon, in the experiment with M19-MEL melanoma, in the experiment on RXF-631 renal and in the experiment on XF 498 CNS was > 320 µM throughout.
`O=C1C2Nc3ccccc3SC2C(=O)N1c1ccc(Br)cc1` (centres undefined): the TGI in the experiment on DLD-1 colon is > 100 µM; in the experiment on DMS 114 small cell lung it was 46.4 µM; in the experiment with KM20L2 colon, > 100 µM; with M19-MEL melanoma it was > 100 µM; with SNB-78 CNS, 99.1 µM; in the experiment with XF 498 CNS it was > 100 µM.
On to `CCOC(=O)C1Cc2c(cc3c4c(cccc24)N(C(C)=O)C3)N(C)C1` (centres undefined), for which the TGI in the experiment on MDA-N worked out at 3.29 µM.
Same read-out and setting: the value for `c1cc(NNc2cccc(-c3nn[nH]n3)c2)cc(-c2nn[nH]n2)c1` was > 100 µM.
As to `Cn1c2c(c3ccccc31)CCN(CCCCN1CCCCC1)C2=O`, the TGI in the experiment with DLD-1 colon, in the experiment on HOP-18 NSCLC, in the experiment with KM20L2 colon, in the experiment with M19-MEL melanoma, in the experiment on RXF-631 renal and in the experiment with SNB-78 CNS was > 100 µM in each case. In the experiment on XF 498 CNS, the TGI was > 100 µM.
On to `CN(CCN1C(=O)c2cc([N+](=O)[O-])cc3cc([N+](=O)[O-])cc(c23)C1=O)CCN1C(=O)c2cc([N+](=O)[O-])cc3cc([N+](=O)[O-])cc(c23)C1=O`, for which the TGI in the experiment with DLD-1 colon is 18.8 µM; with DMS 114 small cell lung, 46.9 µM; with HOP-18 NSCLC, > 100 µM; in the experiment with KM20L2 colon, > 33.5 µM; in the experiment on M19-MEL melanoma, 4.4 µM; in the experiment with SNB-78 CNS it was 5.91 µM. Moreover, the TGI in the experiment on XF 498 CNS amounted to 23.1 µM.
As for `Cc1ccc(S(=O)(=O)OCCn2cnc3nc(NC(=O)c4ccccc4)[nH]c(=O)c32)cc1`, the TGI in the experiment on DLD-1 colon, in the experiment on DMS 114 small cell lung, in the experiment with HOP-18 NSCLC, in the experiment with KM20L2 colon, in the experiment with M19-MEL melanoma and in the experiment on SNB-78 CNS was > 100 µM in each case.
